Measured values from patent US10501426B1, “Synthesis of thiazole derivative as anticancer and anti-antibiotics resistant bacteria agent” (priority 2019, dated 2019).

Key:
Test in all cases: Antibiotic susceptibility testing, Vitek System
Assay type in all cases: cell-based, Staphylococcus epidermidis
S. epidermidis S2 = system: S. epidermidis S2
Method: (§1) Compound 6, synthesized as above, was evaluated as an antimicrobial agent against selected antibiotics resistant Staphylococcus epidermidis. The bacterial strains were obtained from Laboratory (2b56) of the Botany and Microbiology Department, College of Science, King Saud University, Riyadh. The bacterial strains were isolated from the skin of healthy students and identified by an automated antibiotic susceptibility testing system, Vitek System (BioMerieux, France).

S. epidermidis S1 = system: S. epidermidis S1
Method: as §1

S. epidermidis S3 = system: S. epidermidis S3
Method: as §1
Also: key: S = susceptible; R = Resistant; I = intermediate.

| Compound | susceptibility to standard antibiotics (S. epidermidis S2) | susceptibility to standard antibiotics (S. epidermidis S1) | susceptibility to standard antibiotics (S. epidermidis S3) |
| --- | --- | --- | --- |
| O=C(O)c1cn(C2CC2)c2cc(N3CCNCC3)c(F)cc2c1=O [Ciprofloxacin] | R | S | R |
| CCC[C@@H]1C[C@@H](C(=O)N[C@@H]([C@H]2O[C@H](SC)[C@H](O)[C@@H](O)[C@H]2O)[C@H](C)Cl)N(C)C1 [Clindamycin] | R | S | R |
| CCCCCCCCCC(=O)N[C@@H](Cc1c[nH]c2ccccc12)C(=O)N[C@H](CC(N)=O)C(=O)N[C@@H](CC(=O)O)C(=O)N[C@@H]1C(=O)NCC(=O)N[C@@H](CCCN)C(=O)N[C@@H](CC(=O)O)C(=O)N[C@H](C)C(=O)N[C@@H](CC(=O)O)C(=O)NCC(=O)N[C@H](CO)C(=O)N[C@@H]([C@H](C)CC(=O)O)C(=O)N[C@@H](CC(=O)c2ccccc2N)C(=O)O[C@@H]1C [Daptomycin] | R | S | R |
| CC[C@H]1OC(=O)[C@H](C)[C@@H](O[C@H]2C[C@@](C)(OC)[C@@H](O)[C@H](C)O2)[C@H](C)[C@@H](O[C@@H]2O[C@H](C)C[C@H](N(C)C)[C@H]2O)[C@](C)(O)C[C@@H](C)C(=O)[C@H](C)[C@@H](O)[C@]1(C)O [Erythromycin] | R | R | R |
| C[C@@H]1O[C@@H]1P(=O)(O)O [Fosfomycin] | S | S | S |
| CC(=O)O[C@H]1C[C@@]2(C)[C@@H](C[C@@H](O)[C@H]3[C@@]4(C)CC[C@@H](O)[C@@H](C)[C@@H]4CC[C@@]32C)/C1=C(\CCC=C(C)C)C(=O)O [Fusidic Acid] | R | S | R |
| C[C@H]1COc2c(N3CCN(C)CC3)c(F)cc3c(=O)c(C(=O)O)cn1c23 [Levofloxacin] | R | S | S |
| CC(=O)NC[C@H]1CN(c2ccc(N3CCOCC3)c(F)c2)C(=O)O1 [Linezolid] | R | S | R |
| C[C@@H](O)[C@H]1C(=O)N2C(C(=O)O)=C(SCCN=CN)C[C@H]12 [Lmipenem] | S | S | S |
| COc1c(N2C[C@@H]3CCCN[C@@H]3C2)c(F)cc2c(=O)c(C(=O)O)cn(C3CC3)c12 [Moxifloxacin] | R | S | S |
| C/C(=C\C(=O)OCCCCCCCCC(=O)O)C[C@@H]1OC[C@H](C[C@@H]2O[C@H]2[C@@H](C)[C@H](C)O)[C@@H](O)[C@H]1O [Mupirocin] | R | S | R |
| Cc1onc(-c2ccccc2)c1C(=O)N[C@@H]1C(=O)N2[C@@H]1SC(C)(C)[C@@H]2C(=O)O [Oxacillin] | R | S | R |
| CO[C@H]1/C=C/O[C@@]2(C)Oc3c(C)c(O)c4c(O)c(c(/C=N/N5CCN(C)CC5)c(O)c4c3C2=O)NC(=O)/C(C)=C\C=C\[C@H](C)[C@H](O)[C@@H](C)[C@@H](O)[C@@H](C)[C@H](OC(C)=O)[C@@H]1C [Rifampin] | R | S | R |
| CN(C)[C@@H]1C(O)=C(C(N)=O)C(=O)[C@@]2(O)C(O)=C3C(=O)c4c(O)cccc4[C@@](C)(O)[C@H]3C[C@@H]12 [Tetracycline] | S | S | S |
| CN[C@H](CC(C)C)C(=O)N[C@H]1C(=O)N[C@@H](CC(N)=O)C(=O)N[C@H]2C(=O)N[C@H]3C(=O)N[C@H](C(=O)N[C@H](C(=O)O)c4cc(O)cc(O)c4-c4cc3ccc4O)[C@H](O)c3ccc(c(Cl)c3)Oc3cc2cc(c3O[C@@H]2O[C@H](CO)[C@@H](O)[C@H](O)[C@H]2O[C@H]2C[C@](C)(N)[C@H](O)[C@H](C)O2)Oc2ccc(cc2Cl)[C@H]1O [Vancomycin] | R | S | S |
| Gentamicin | S | S | S |
| Teicoplanin | R | S | S |
